Measurements reported in PubChem BioAssay (NCI).
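1) Cells in 96-well plates. 2) Compound, 48 h, 5 concentrations. 3) Linear interpolation between surrounding doses. 4) Unreached endpoint = highest concentration. At the GI50, growth is halved. TGI marks complete inhibition of growth.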

Experiments:
Experiment in all cases: DTP human tumour cell line panel, 48 h
[1] = system: HCT-116 colon
[2] = system: SNB-75 CNS
[3] = system: HCC-2998 colon
[4] = system: COLO 205 colon
[5] = system: SK-MEL-5 melanoma
[6] = system: NCI-H23 lung
[7] = system: SN12C renal
[8] = system: RPMI-8226 leukemia
[9] = system: SK-MEL-28 melanoma
[10] = system: HT29 colon

Structure (SMILES)	TGI [1] [µM]	TGI [2] [µM]	TGI [3] [µM]	TGI [4] [µM]	TGI [5] [µM]	TGI [6] [µM]	TGI [7] [µM]	TGI [8] [µM]	TGI [9] [µM]	TGI [10] [µM]	GI50 [1] [µM]	GI50 [2] [µM]	GI50 [3] [µM]	GI50 [5] [µM]	GI50 [6] [µM]	GI50 [7] [µM]	GI50 [8] [µM]	GI50 [9] [µM]	GI50 [10] [µM]	GI50 [4] [µM]
Cc1cc(C)c(S(=O)(=O)N(CCCN)OCCCN)c(C)c1	> 100	> 100	> 100	> 100	> 100	> 100	> 100	> 100	> 100	> 100	–	–	–	–	–	–	–	–	–	–
CCN(CC)C(=S)SSCCO	27.7	28	43.3	–	53.1	31.5	32.2	39.5	29.3	30.8	14.6	14.8	18.9	16.5	16.4	17.4	14.4	15.8	17	–
CC1CCN(c2cc(-c3cc4ccccc4o3)oc(=O)c2C#N)CC1	> 100	> 100	> 100	> 100	> 100	> 100	> 100	> 100	> 100	> 100	–	–	–	–	–	–	–	–	–	–
Clc1ccc(-c2nnc(-c3nsc4ccccc34)o2)cc1	42.9	24.6	93.7	> 100	> 100	74.1	> 100	> 100	> 100	> 100	–	–	–	–	–	–	–	–	–	–
O=c1[nH]c(=S)[nH]c2c(C3OC(CO)C(O)C3O)nsc12 (configuration not stated)	> 100	> 100	> 100	> 100	> 100	–	> 100	–	> 100	> 100	–	–	–	–	–	–	–	–	–	–
Clc1cccc(C2SCc3nc4ccccc4n32)c1 (configuration not stated)	–	21.3	–	15.1	–	51.4	28.6	> 100	46.2	67.2	–	–	–	–	–	–	–	–	–	–
Fc1ccc(C(OCCN2CC3CC2CN3)c2ccc(F)cc2)cc1 (configuration not stated)	–	> 100	30.4	33.5	30.9	> 100	–	71.1	52.3	–	–	–	–	–	–	–	–	–	–	–
CC(C)(CC1(C)NC(=O)NC1=O)OCc1ccccc1 (configuration not stated)	> 100	> 100	> 100	–	> 100	> 100	> 100	> 100	> 100	> 100	–	–	–	–	–	–	–	–	–	–
CCOC(=O)[C@H]1Nc2c(cccc2[N+](=O)[O-])C2c3ccccc3CC21 (some centres not stated)	> 100	> 100	> 100	> 100	> 100	> 100	> 100	> 100	> 100	74.9	–	–	–	–	–	–	–	–	–	–
CCOc1cc(/C=C/C(=O)CC(=O)/C=C/c2ccc(OC(=O)CNCCN(CC)CC)c(OCC)c2)ccc1OC(=O)CNCCN(CC)CC	2.61	62.4	3.19	4.58	3.17	–	6.25	2.1	4.56	–	1.2	6	1.65	1.55	–	2	0.45	1.96	–	1.88
CC1=NN(C(=O)c2ccc(C)cc2)C(=O)C1N=Nc1ccccc1C(=O)O (configuration not stated)	> 100	98.9	> 100	> 100	> 100	> 100	> 100	> 100	> 100	> 100	–	–	–	–	–	–	–	–	–	–
N/C(=N\N=C/c1cc([N+](=O)[O-])cc([N+](=O)[O-])c1O)NO	> 100	> 80.9	> 100	> 31.6	> 38.4	> 100	> 100	> 100	> 100	> 100	–	–	–	–	–	–	–	–	–	–
Cc1ccc2oc3c(ccc(=O)n3C)c(=O)c2c1	> 100	> 100	> 100	> 100	> 100	> 100	> 100	–	> 100	> 100	–	–	–	–	–	–	–	–	–	–
c1csc(C(NC2=NCCO2)C2CC2)c1 (configuration not stated)	> 100	> 100	> 100	> 100	> 100	> 100	> 100	> 100	–	> 100	–	–	–	–	–	–	–	–	–	–
CO/C(=N\N=C(/c1ccccc1)C(F)(F)F)c1ccncc1	> 100	> 100	–	> 100	57	> 100	> 100	> 100	> 100	> 100	–	–	–	–	–	–	–	–	–	–
